System: yeast genes (expressed mRNA)
Experiment: DNA chip measurement of expressed mRNA of yeast genes after culture with a toxic chemical substance
Format: cell-based, Saccharomyces cerevisiae S288C
Method: Yeast (Saccharomyces cerevisiae S288C (a SUC2mal mel gap2 CUP1)) were cultured at 25° C. on YPD medium (yeast extract 1%, polypeptone 2%, glucose 2%). One of toxic chemical substances was added to the cell at logarithmic growth phase, and the cell was further cultured for two hours. Cell was cultured without any chemical substance in the same condition, and was used as a control. Concentrations of the chemical substances were defined to inhibit the growth of the yeast but not lead to death.
After the completion of cultivation, the culture was centrifuged to collect the cells. To the cells, sodium acetate buffer (50 mM sodium acetate, 10 mM EDTA, 1% SDS) was added, and the mixture was shaken at 65° C. for five minutes, followed by returning to room temperature, and obtaining the supernatant, which procedure was repeated two times. To the supernatant, ½ amount of a solution of phenol/chloroform (1:1) was added, and the mixture was centrifuged to give a supernatant, an equal amount of chloroform was added, and the mixture was centrifuged to give a supernatant. To the supernatant, an equal amount of isopropanol containing 0.3 M sodium acetate was added, and the mixture was allowed to stand at room temperature for 30 minutes, after which the mixture was centrifuged to give sediment of the whole RNAs. Seventy % ethanol was added to the sediment, and the mixture was again centrifuged to give sediment, which was then dried and dissolved in water. mRNA was isolated from the whole RNAs as followings. In view of the fact that a poly A chain is attached to the 3′ terminus of mRNA, a polynucleotide having a poly T structure which was immobilized on the surface of latex beads was used to trap the mRNA, and then the mRNA was washed and eluted with spine column (Oligotex-dT30<Super>mRNA Purification Kit, Takara). Reverse transcription of the mRNA was conducted with a reverse transcriptase (Super Script II Reverse Transcriptase; catalogue No. 18064-014, GibcoBRL) using fluorescence-labeled nucleotides to give cDNAs that were introduced with Cy3-dUTP or Cy5-dUTP during the reverse transcription.
The labeled cDNAs were dissolved in TE buffer (10 mM Tris-HCl/1 mM EDTA, pH 8.0), and the solution was dropped on the DNA chip containing the whole genes of yeast (DNA Chip Research Inc. Japan) so that the cDNAs were hybridized on the DNA chip at 65° C. for over 12 hours. The fluoresces intensity of the DNA chip was read with a scanner, and the ratio relative to the fluorescence intensity resulting from the absence of chemical substance was estimated as the following, which is shown in Tables 1 to 9.
In the Tables, “Intensity” indicated in the rightmost column is a value of the level of expressed mRNA of each gene in control cells as divided by the average level of the expressions of the whole genes. A gene of which mRNA level is lower in control, and is higher in cases of addition of chemical substance, is especially useful in the detection of toxic substances.
Here, when a ratio of an amount of mRNA expressed in the presence of the chemical substance to an amount of mRNA expressed in the absence of the chemical substance is two or more, then it is considered significant.

SMILES: Oc1cc(Cl)c(Cl)cc1Cl [(6), 2,4,5-Trichlorophenol]
- The level of expressed mRNA in the presence of chemical substance/The level of expressed mRNA in the absence of chemical substance (yeast gene YFL032W, cultured two hours with substance): 0.6
- The level of expressed mRNA in the presence of chemical substance/The level of expressed mRNA in the absence of chemical substance (yeast gene YGL037C, cultured two hours with substance): 1.3
- The level of expressed mRNA in the presence of chemical substance/The level of expressed mRNA in the absence of chemical substance (yeast gene YGL047W, cultured two hours with substance): 1.5
- The level of expressed mRNA in the presence of chemical substance/The level of expressed mRNA in the absence of chemical substance (yeast gene YGL053W, cultured two hours with substance): 2.7
- The level of expressed mRNA in the presence of chemical substance/The level of expressed mRNA in the absence of chemical substance (yeast gene YGL117W, cultured two hours with substance): 0.9
- The level of expressed mRNA in the presence of chemical substance/The level of expressed mRNA in the absence of chemical substance (yeast gene YGL121C, cultured two hours with substance): 9.8
- The level of expressed mRNA in the presence of chemical substance/The level of expressed mRNA in the absence of chemical substance (yeast gene YGL199C, cultured two hours with substance): 0.7
- The level of expressed mRNA in the presence of chemical substance/The level of expressed mRNA in the absence of chemical substance (yeast gene YGR043C): 16.3
- The level of expressed mRNA in the presence of chemical substance/The level of expressed mRNA in the absence of chemical substance (yeast gene YGR043C, cultured for two hours with substance): 16.3
- The level of expressed mRNA in the presence of chemical substance/The level of expressed mRNA in the absence of chemical substance (yeast gene YGR101W, cultured two hours with substance): 0.9
- The level of expressed mRNA in the presence of chemical substance/The level of expressed mRNA in the absence of chemical substance (yeast gene YGR108W): 0.1
- The level of expressed mRNA in the presence of chemical substance/The level of expressed mRNA in the absence of chemical substance (yeast gene YGR110W, cultured two hours with substance): 0.9
- The level of expressed mRNA in the presence of chemical substance/The level of expressed mRNA in the absence of chemical substance (yeast gene YGR130C, cultured two hours with substance): 0.9
- The level of expressed mRNA in the presence of chemical substance/The level of expressed mRNA in the absence of chemical substance (yeast gene YGR154C, cultured two hours with substance): 1.4
- The level of expressed mRNA in the presence of chemical substance/The level of expressed mRNA in the absence of chemical substance (yeast gene YGR221C, cultured two hours with substance): 3.0
- The level of expressed mRNA in the presence of chemical substance/The level of expressed mRNA in the absence of chemical substance (yeast gene YHL040C (detoxification protein gene)): 7.3
- The level of expressed mRNA in the presence of chemical substance/The level of expressed mRNA in the absence of chemical substance (yeast gene YHL040C (transport facilitation protein gene)): 7.3
- The level of expressed mRNA in the presence of chemical substance/The level of expressed mRNA in the absence of chemical substance (yeast gene YHR029C, cultured two hours with substance): 2.7
- The level of expressed mRNA in the presence of chemical substance/The level of expressed mRNA in the absence of chemical substance (yeast gene YHR138C, cultured two hours with substance): 3.8
- The level of expressed mRNA in the presence of chemical substance/The level of expressed mRNA in the absence of chemical substance (yeast gene YHR199C, cultured two hours with substance): 1.1
- The level of expressed mRNA in the presence of chemical substance/The level of expressed mRNA in the absence of chemical substance (yeast gene YIL023C, cultured two hours with substance): 0.9
- The level of expressed mRNA in the presence of chemical substance/The level of expressed mRNA in the absence of chemical substance (yeast gene YIL024C, cultured two hours with substance): 1.0
- The level of expressed mRNA in the presence of chemical substance/The level of expressed mRNA in the absence of chemical substance (yeast gene YIL041W, cultured two hours with substance): 1.0
- The level of expressed mRNA in the presence of chemical substance/The level of expressed mRNA in the absence of chemical substance (yeast gene YIL087C, cultured two hours with substance): 4.1
- The level of expressed mRNA in the presence of chemical substance/The level of expressed mRNA in the absence of chemical substance (yeast gene YIL117C, cultured two hours with substance): 1.2
- The level of expressed mRNA in the presence of chemical substance/The level of expressed mRNA in the absence of chemical substance (yeast gene YJL057C, cultured two hours with substance): 1.4
- The level of expressed mRNA in the presence of chemical substance/The level of expressed mRNA in the absence of chemical substance (yeast gene YJL066C, cultured two hours with substance): 1.4
- The level of expressed mRNA in the presence of chemical substance/The level of expressed mRNA in the absence of chemical substance (yeast gene YJL082W, cultured two hours with substance): 0.2
- The level of expressed mRNA in the presence of chemical substance/The level of expressed mRNA in the absence of chemical substance (yeast gene YJL108C, cultured two hours with substance): 0.6
- The level of expressed mRNA in the presence of chemical substance/The level of expressed mRNA in the absence of chemical substance (yeast gene YJL149W, cultured two hours with substance): 0.7
- The level of expressed mRNA in the presence of chemical substance/The level of expressed mRNA in the absence of chemical substance (yeast gene YJL151C, cultured two hours with substance): 2.2
- The level of expressed mRNA in the presence of chemical substance/The level of expressed mRNA in the absence of chemical substance (yeast gene YJL152W, cultured two hours with substance): 1.5
- The level of expressed mRNA in the presence of chemical substance/The level of expressed mRNA in the absence of chemical substance (yeast gene YJL161W, cultured two hours with substance): 8.0
- The level of expressed mRNA in the presence of chemical substance/The level of expressed mRNA in the absence of chemical substance (yeast gene YJL171C, cultured two hours with substance): 2.7
- The level of expressed mRNA in the presence of chemical substance/The level of expressed mRNA in the absence of chemical substance (yeast gene YJL186W, cultured two hours with substance): 0.7
- The level of expressed mRNA in the presence of chemical substance/The level of expressed mRNA in the absence of chemical substance (yeast gene YJR008W, cultured two hours with substance): 2.2
